Consider 11 molecules from patent US20250129094A1, “NEW QUINOLINE DERIVATIVES” (ELANCO ANIMAL HEALTH GMBH, priority 2021, published 2025).

Where two headings read alike, the source gives them in different places.

In assay [1] the test system is H. contortus and/or T. colubriformis. Kind of assay: In vivo assay 3: gastro intestinal nematodes H. contortus and T. colubriformis in jirds. Conditions: jirds (Meriones unguiculatus), at ≤1.0 mg/kg intraperitoneal, treated once on Day 6 after infection.
Description: In Vivo Assay 3: Gastro Intestinal Nematodes of H. contortus (Haemonchus contortus) and T. colubriformis (Trichostrongylus colubriformis)
Jirds (Meriones unguiculatus), immunosuppressed by administration of rodent feed containing hydrocortisone 21-acetate, were experimentally infected with third instar larvae each of T. colubriformis and H. contortus by oral gavage and were treated once orally or intraperitoneally with the formulated test compound on Day 6 after infection. Three days after treatment, jirds were euthanized and dissected to recover H. contortus from stomach and T. colubriformis from the small intestine. Efficacy is expressed as a % reduction in worm numbers in comparison with a placebo treated group, using the Abbot's formula.
The target of the next assay is D. immitis Slo-1 (Dirofilaria immitis, UniProt I0DFK5). Kind of assay: D. immitis Slo-1 - action at a recombinant D. immitis cell line (membrane potential, FLIPR). The format is cell-based.
Sequence of D. immitis Slo-1 (I0DFK5 1-1119): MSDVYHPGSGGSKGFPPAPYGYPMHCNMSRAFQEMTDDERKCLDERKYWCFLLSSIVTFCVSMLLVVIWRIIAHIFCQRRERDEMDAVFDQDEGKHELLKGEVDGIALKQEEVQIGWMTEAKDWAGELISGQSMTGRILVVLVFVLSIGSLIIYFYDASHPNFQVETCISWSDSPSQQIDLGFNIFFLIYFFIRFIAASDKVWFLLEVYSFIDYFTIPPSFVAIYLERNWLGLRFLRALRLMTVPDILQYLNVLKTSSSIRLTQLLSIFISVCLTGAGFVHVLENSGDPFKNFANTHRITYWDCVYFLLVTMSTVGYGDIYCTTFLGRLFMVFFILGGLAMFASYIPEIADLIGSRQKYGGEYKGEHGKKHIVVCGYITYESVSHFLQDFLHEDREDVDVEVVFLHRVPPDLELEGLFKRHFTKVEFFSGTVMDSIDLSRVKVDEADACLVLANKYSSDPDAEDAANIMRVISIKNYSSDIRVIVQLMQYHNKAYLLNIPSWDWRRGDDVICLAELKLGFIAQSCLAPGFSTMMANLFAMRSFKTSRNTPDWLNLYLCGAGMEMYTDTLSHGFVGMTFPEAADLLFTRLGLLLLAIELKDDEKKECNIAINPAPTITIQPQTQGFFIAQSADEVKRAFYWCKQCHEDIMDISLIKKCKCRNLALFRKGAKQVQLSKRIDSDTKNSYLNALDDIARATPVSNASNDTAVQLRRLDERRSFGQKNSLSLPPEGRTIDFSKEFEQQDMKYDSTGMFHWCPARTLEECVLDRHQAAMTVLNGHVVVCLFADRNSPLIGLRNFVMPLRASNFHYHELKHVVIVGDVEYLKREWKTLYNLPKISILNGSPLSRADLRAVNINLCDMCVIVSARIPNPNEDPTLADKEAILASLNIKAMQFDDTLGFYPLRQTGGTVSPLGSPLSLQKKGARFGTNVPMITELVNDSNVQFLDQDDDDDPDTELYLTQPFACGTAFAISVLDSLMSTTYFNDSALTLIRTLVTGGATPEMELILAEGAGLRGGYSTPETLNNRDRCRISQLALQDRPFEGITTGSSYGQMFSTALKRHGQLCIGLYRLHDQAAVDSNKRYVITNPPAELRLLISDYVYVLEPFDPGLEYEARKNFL
The next assay concerns A. viteae. Conditions: jirds (Meriones unguiculatus), at ≤25.0 mg/kg per oral, treated once, necropsy 12 weeks after infection.

Excerpt for A. viteae: Jirds (Meriones unguiculatus), experimentally infected with infective A. viteae larvae via subcutaneous injection were subsequently treated once with the formulated test compound by oral gavage or intraperitoneally. At necropsy 12 weeks after infection, efficacy was expressed as a % reduction in worm numbers in comparison with the placebo treated group, using the Abbot's formula.

Regarding `O=C(N[C@H]1CCOc2ccccc21)c1cnc2c(-c3cc(F)cc(F)c3F)c(F)ccc2c1[C@H]1CCOC1` [Example 9, N-[(4S)-3,4-dihydro-2H-1-benzopyran-4-yl]-7-fluoro-4-(oxolan-(3R)-yl)-8-(2,3,5-trifluorophenyl) quinoline-3-carboxamide], in assay [1], the “activity (% reduction in worm numbers)” value stood at 100%. Also, on D. immitis Slo-1, the EC50 lay in the range of 0.001 to 0.01 µM.

With `O=C1CN(c2c(C(=O)N[C@H]3CCOc4ccccc43)cnc3c(-c4cc(F)cc(F)c4F)c(F)ccc23)CCN1` [Example 16, N—((S)-chroman-4-yl)-7-fluoro-4-(3-oxopiperazin-1-yl)-8-(2,3,5-trifluorophenyl) quinoline-3-carboxamide], the “activity (% reduction in worm numbers)” value in assay [1] is 100%.

Consider `O=C(N[C@H]1CCOc2ccccc21)c1cnc2c(-c3cc(F)cc(F)c3F)c(F)ccc2c1C1CCOC1` (stereo partly drawn) [Example 7, N-[(4S)-3,4-dihydro-2H-1-benzopyran-4-yl]-7-fluoro-4-(oxolanyl)-8-(2,3,5-trifluorophenyl) quinoline-3-carboxamide], for which the EC50 on D. immitis Slo-1 lay in the range of 0.001 to 0.01 µM.

With `O=C(N[C@H]1CCOc2ccccc21)c1cnc2c(-c3cc(F)cc(F)c3F)c(F)ccc2c1[C@H]1C[C@H](F)C1` [Example 15, N—((S)-chroman-4-yl)-7-fluoro-4-((1R,3S)-3-fluorocyclobutyl)-8-(2,3,5-trifluorophenyl) quinoline-3-carboxamide], the “activity (% reduction in worm numbers)” value in assay [1] is 100%. Besides, the EC50 at D. immitis Slo-1 was 0.001 to 0.01 µM.

On to `O=C(N[C@H]1CCOc2ccccc21)c1cnc2c(-c3cc(F)cc(F)c3F)c(F)ccc2c1C1C[S+]([O-])C1` (single isomer, unassigned) [Example 6], for which, at D. immitis Slo-1 (read-out: pE50, stable CHO cell line expressing D. immitis Slo-1, voltage sensitive dye, upper limit in μM), the EC50 was in the range of 0.1 to 1 µM.

Take `O=C(N[C@H]1CCOc2ccccc21)c1cnc2c(-c3cc(Cl)cc(Cl)c3)c(F)ccc2c1N1CCOC2CC21` (stereo partly drawn) [Example 13, 4-(2-oxa-5-azabicyclo[4.1.0]heptan-5-yl)-N—((S)-chroman-4-yl)-8-(3,5-dichlorophenyl)-7-fluoroquinoline-3-carboxamide]: the EC50 on D. immitis Slo-1 is 0.001 to 0.01 µM.

Regarding `N=S1(=O)CC(c2c(C(=O)N[C@H]3CCOc4ccccc43)cnc3c(-c4cc(F)cc(F)c4F)c(F)ccc23)C1` (stereo partly drawn) [Example 10, N-[(4S)-3,4-dihydro-2H-chromen-4-yl]-7-fluoro-4-(1-imino-1-oxido-1lambda^4-thietan-3-yl)-8-(2,3,5-trifluorophenyl) quinoline-3-carboxamide], the “activity (% reduction in worm numbers)” value in assay [1] was determined as 100%. For the same molecule, at D. immitis Slo-1, the EC50 was in the range of 0.001 to 0.01 µM.

Turning to `O=C(N[C@H]1CCOc2ccccc21)c1cnc2c(-c3cc(F)cc(F)c3F)c(F)ccc2c1C1C[S+]([O-])C1` (single isomer, unassigned) [Example 5], the “activity (% reduction in worm numbers)” value in assay [1] came to 100%.

For the molecule `O=C(N[C@H]1CCOc2ccccc21)c1cnc2c(-c3cc(F)cc(F)c3F)c(F)ccc2c1[C@@H]1CCOC1` [Example 8, N-[(4S)-3,4-dihydro-2H-1-benzopyran-4-yl]-7-fluoro-4-(oxolan-(3S)-yl)-8-(2,3,5-trifluorophenyl) quinoline-3-carboxamide], the “activity (% reduction in worm numbers)” value in assay [1] worked out at 100%. Moreover, on D. immitis Slo-1, the EC50 was 0.001 to 0.01 µM.

As to `O=C1CC(c2c(C(=O)N[C@H]3CCOc4ccccc43)cnc3c(-c4cc(F)cc(F)c4F)c(F)ccc23)C1` [Example 1, N-[(4S)-3,4-dihydro-2H-chromen-4-yl]-7-fluoro-4-(3-oxocyclobutyl)-8-(2,3,5-trifluorophenyl) quinoline-3-carboxamide], the “activity (% reduction in worm numbers)” value (in assay [1]; in the assay with A. viteae) was 100% each time. Besides, the EC50 at D. immitis Slo-1 fell in the range of 0.001 to 0.01 µM.

`O=C(N[C@H]1CCOc2ccccc21)c1cnc2c(-c3cc(F)cc(F)c3F)c(F)ccc2c1C1CS(=O)(=O)C1` [Example 3, N-[(4S)-3,4-dihydro-2H-chromen-4-yl]-4-(1,1-dioxidothietan-3-yl)-7-fluoro-8-(2,3,5-trifluorophenyl) quinoline-3-carboxamide]: at D. immitis Slo-1, the EC50 was 0.01 to 0.1 µM.
